Where “and” joins values, the source holds several entries; their conditions need not be identical. Equal entries are not always repeated. Where two headings read alike, the source gives them in different places.
Legend:
[1] = MTT cytotoxicity assay, HCT-116; format: cell-based; settings: human, HCT-116 colon carcinoma cells; HCT-116, MTT; read-out: Cytotoxic Activity (IC50 µmol/L) HCT-116
Method: (§1) The human cancer cell line was used for cytotoxic assay: (HCT-116, IGROV-1 and OVCAR-3). The cells were grown in RPMI-1640 medium supplemented with 10% faetal calf serum (Gibco, Langley, OK, USA), air and 5% CO2. The isolate was added to a medium containing 1 × 10^6 cells/mL, 2 mM L-glutamine and 50 μg/mL gentamycin, and kept at 37 °C in a fully humidified atmosphere. After 18 h of incubation at 37 °C in 5% CO2 incubator, the tubes were centrifuged at 8000 g for 10 min. The supernatant was decanted, and the pellets taken and washed with 20 mM of phosphate buffered saline solution. Each pellet was dissolved in 100 μL (2 mg/mL) MTT solution in a tube, incubated at 22 °C for 4 h and centrifuged at 8000 g for 10 min. All the pellets were dissolved in 500 μL DMSO and read spectrophotometrically at 500 nm. IC50 was calculated by nonlinear regression analysis. Doxorubicin (HCT116) and tamoxifen (IGROV-1 and OVCAR-3) were used as positive control.

[2] = MTT cytotoxicity assay, OVCAR-3; format: cell-based; settings: human, OVCAR-3 ovary cells; OVCAR-3, MTT; read-out: Cytotoxic Activity (IC50 µmol/L) OVCAR-3
Method: as §1

5-lipoxygenase = biological target: T1, 5-lipoxygenase (Glycine max, UniProt P08170); experiment: 5-Lipoxygenase inhibitory assay (linoleic acid, 234 nm); format: biochemical, Soybean; settings: for inhibition at 80 µM: read-out: 5-Lipoxygenase Inhibitory (% at 80 µmol/L)
T1 sequence (P08170 1-839): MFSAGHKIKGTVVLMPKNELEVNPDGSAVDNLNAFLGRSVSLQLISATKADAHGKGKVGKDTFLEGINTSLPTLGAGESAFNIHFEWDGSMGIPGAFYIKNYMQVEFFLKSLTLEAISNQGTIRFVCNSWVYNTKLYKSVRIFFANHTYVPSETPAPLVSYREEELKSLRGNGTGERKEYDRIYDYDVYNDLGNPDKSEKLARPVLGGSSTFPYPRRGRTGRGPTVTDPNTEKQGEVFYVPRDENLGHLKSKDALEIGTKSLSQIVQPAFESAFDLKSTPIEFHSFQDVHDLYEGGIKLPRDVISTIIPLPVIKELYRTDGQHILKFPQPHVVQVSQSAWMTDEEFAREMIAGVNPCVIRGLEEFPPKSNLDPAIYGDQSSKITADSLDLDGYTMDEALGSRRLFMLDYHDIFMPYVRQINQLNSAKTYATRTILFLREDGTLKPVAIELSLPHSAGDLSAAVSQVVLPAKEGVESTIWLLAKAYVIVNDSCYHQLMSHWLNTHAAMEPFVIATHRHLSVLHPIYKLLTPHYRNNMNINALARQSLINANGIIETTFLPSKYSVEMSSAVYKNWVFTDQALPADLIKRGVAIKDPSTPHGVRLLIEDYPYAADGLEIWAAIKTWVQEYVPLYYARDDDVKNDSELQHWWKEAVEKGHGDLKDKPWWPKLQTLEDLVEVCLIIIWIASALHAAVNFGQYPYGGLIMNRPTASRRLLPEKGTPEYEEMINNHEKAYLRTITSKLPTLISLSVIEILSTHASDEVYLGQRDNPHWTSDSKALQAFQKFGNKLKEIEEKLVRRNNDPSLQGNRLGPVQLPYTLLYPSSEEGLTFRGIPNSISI
Method: The anti-inflammatory activity activities of the isolates was determined on Soybean lipoxygenase as described by Khlifi et al. with some modifications. 20 µL of each compound was mixed individually with 150 µL sodium phosphate buffer (pH 7.4) containing 20 µL of 5-lipoxygenase and 60 µL of linoleic acid (3.5 mM), yielding a final volume of 250 µL. […] The mixture was incubated at 25 °C for 10 min, and the absorbance was determined at 234 nm. The absorption change with the conversion of linoleic acid to 13-hydroperoxyoctadeca-9,11-dienoate (characterized by the appearance of the conjugated diene at 234 nm) was followed for 10 min at 25 °C. […] All measurements were performed in triplicate.

[3] = MTT cytotoxicity assay, IGROV-1; format: cell-based; settings: human, IGROV-1 ovary cells; IGROV-1, MTT; read-out: Cytotoxic Activity (IC50 µmol/L) IGROV-1
Method: as §1

[4] = DPPH free radical scavenging test; settings: mean ± SD of three measurements; read-out: IC50 (µmol/L) DPPH Assay
Method: The antioxidant activity of compounds was assessed according to their DPPH scavenging ability as described by Khlifi et al., [33] with some modifications. Reaction mixtures, containing 0.1 mL of the relevant compounds solution in methanol, with concentrations ranging 3 mg/mL and 0.1 mL of a 0.2 mM DPPH methanolic solution, were added to 96-well microtiter plates and incubated at 25 °C for 30 min. Absorbances were measured at 520 nm, the wavelength of maximum absorbance of DPPH, were recorded as A(sample). A blank experiment was also carried out applying the same procedure to a solution without the test material and the absorbance was recorded as A(blank).
Ascorbic acid was used as a standard. All measurements were performed in triplicate.

LoVo/Doxo = system: LoVo/Doxo; set-up: method as in PMID 15387667; settings: read-out: IC50 against LoVo/Doxo; cited from earlier work
[5] = system: human fibrosarcoma cell line HT-1080; set-up: method as in PMID 15387667; settings: read-out: IC50 against HT-1080; cited from earlier work
[6] = system: human promyelocytic leukemia cell HL-60; set-up: method as in PMID 15387667; settings: read-out: IC50 against HL-60; cited from earlier work
[7] = ABTS radical-scavenging test; settings: mean ± SD of three measurements; read-out: IC50 (µmol/L) ABTS+ Assay
Method: The radical scavenging capacity of the samples for the ABTS (2,2′-azinobis-3-ethylbenzothiazoline-6-sulphonate) radical cation was determined as described by Khlifi et al., [33] with some modifications. ABTS was generated by mixing a 7 mM of ABTS at pH 7.4 (5 mM NaH2PO4, 5 mM Na2HPO4 and 154 mM NaCl) with 2.5 mM potassium persulfate (final concentration) followed by storage in the dark at room temperature for 16 h before use. The mixture was diluted with ethanol to give an absorbance of 0.70 ± 0.02 units at 734 nm using spectrophotometer. For each sample, diluted solution (20 μL) was allowed to react with fresh ABTS solution (180 μL), and then the absorbance was measured 6 min after initial mixing. […] The capacity of free radical scavenging IC50 was determined using the same previously used equation for the DPPH method. All measurements were performed in triplicate.

[8] = previously tested, cited from earlier work
[9] = system: colon cancer cell line LoVo; set-up: method as in PMID 15387667; settings: read-out: IC50 against LoVo; cited from earlier work
liver cell line Hep-G2 = system: liver cell line Hep-G2; set-up: method as in PMID 18481014; settings: read-out: IC50 against Hep-G2; cited from earlier work
[10] = set-up: method as in doi:10.1016/j.foodchem.2011.09.005; settings: previously tested; read-out: Fe3+ reducing power ability IC50; cited from earlier work
[11] = set-up: method as in doi:10.1016/j.foodchem.2011.09.005; settings: previously tested; read-out: hydrogen peroxide (H2O2) inhibition IC50; cited from earlier work
[12] = system: 5-lipoxygenase isolated from rat basophilic leukaemia cells (RBL-1); set-up: method as in doi:10.1016/j.foodchem.2009.09.088; settings: at 20 µmol/L; cited from earlier work
[13] = system: human chronic myelogenous leukemia cell line K562; set-up: method as in PMID 22913434; settings: read-out: IC50 against K562; cited from earlier work
[14] = read-out: DPPH radical scavenging activity IC50

Structure (SMILES)	inhibition at 80 µM (5-lipoxygenase) [%]	5-Lipoxygenase Inhibitory (% at 80 µmol/L) (5-lipoxygenase)	IC50 [4] [µmol/L]	IC50 [7] [µmol/L]	IC50 at 18 h [1] [µmol/L]	IC50 at 18 h [2] [µmol/L]	IC50 at 18 h [3] [µmol/L]	other results
C/C(O[C@@H]1O[C@H](CO)[C@@H](O)[C@H](O)[C@H]1O)=C1/C=CC(=O)O1 [Compound 1, (E)-5-Ethylidenefuran-2(5H)-one-5-O-β-D-glucopyranoside]	16.9 ± 1.2				> 100	> 100	> 100	
C/C(=C\C(=O)O)CO [Compound 2, 4-Hydroxy-3-methylbut-2-enoic acid]	0	did not exhibit activities			> 100	> 100	> 100	
CC1=CC(=O)C2CC1(O[C@@H]1O[C@H](CO)[C@@H](O)[C@H](O)[C@H]1O)C2(C)C (stereo partly drawn) [Compound 3, Verbenone-5-O-β-D-glucopyranoside]	12.4 ± 0.8				> 100	> 100	> 100	
COC(=O)[C@]1(O)C[C@@H](OC(=O)/C=C/c2ccc(O)c(O)c2)[C@@H](O)[C@H](OC(=O)/C=C/c2ccc(O)c(O)c2)C1 [Compound 6, Methyl 3,5-O-Dicaffeoylquinate]			26.6 ± 1.3	20 ± 0.3	> 100	> 100	> 100	IC50 (liver cell line Hep-G2): 72.7 ± 6.2 µM; IC50 [10]: 270 ± 7.37 µM; IC50 (5-lipoxygenase): 5.3 µM and 5.28 µM; IC50 [11]: 316.4 ± 2.86 µM; percent inhibition of 5-lipoxygenase (RBL-1) [12]: 15.1%; IC50 ([8]; read-out: DPPH IC50): 10.3 ± 0.24 µM
COc1cc(-c2oc3cc(O)cc(O)c3c(=O)c2O[C@@H]2O[C@H](CO[C@@H]3O[C@@H](C)[C@H](O)[C@@H](O)[C@H]3O)[C@@H](O)[C@H](O)[C@H]2O)ccc1O [Compound 8, Isorhamnetin-3-O-α-L-rhamnopyranosyl(1→6)-β-D-glucopyranoside,narcissin]	0	did not exhibit activities	> 300	> 300	> 100	> 100	> 100	IC50 [13]: 800 µM; DPPH radical scavenging activity [8]: no activity
Cc1ccc(C)c(C=O)c1C [Compound 11, 2,3,6-Trimethylbenzaldehyde]	0	did not exhibit activities			> 100	> 100	> 100	
COc1cccc2c1C(=O)c1c(O)c3c(c(O)c1C2=O)C[C@@](O)(C(=O)CO)C[C@@H]3O[C@H]1C[C@H](N)[C@H](O)[C@H](C)O1 [Doxorubicin, reference compound]					0.18 ± 0.01			
CC/C(=C(\c1ccccc1)c1ccc(OCCN(C)C)cc1)c1ccccc1 [Tamoxifen, tamoxifen, reference compound]						1.3 ± 0.1	2 ± 0.1	
O=C1O[C@H]([C@@H](O)CO)C(O)=C1O [Vitamin C, ascorbic acid, reference compound]			25 ± 1.1	23.3 ± 0.1				

Continued, in another order:

inhibition at 80 µM (5-lipoxygenase) [%]	5-Lipoxygenase Inhibitory (% at 80 µmol/L) (5-lipoxygenase)	IC50 [4] [µmol/L]	IC50 [7] [µmol/L]	Structure (SMILES)	IC50 at 18 h [1] [µmol/L]	IC50 at 18 h [2] [µmol/L]	IC50 at 18 h [3] [µmol/L]	other results
17.1 ± 1.1				O=C(/C=C/c1ccc(O)c(O)c1)O[C@@H]1C[C@](O)(C(=O)O)C[C@@H](O)[C@H]1O [Compound 4, 5-O-Caffeoylquinic acid]	> 100	> 100	> 100	
0	did not exhibit activities	39.2 ± 0.5	40.8 ± 0.4	COC(=O)/C=C/c1ccc(O)c(O)c1 [Compound 5, Methyl caffeate]	22.5 ± 2.4	25 ± 1.1	17.8 ± 1.1	IC50 (LoVo/Doxo): ≥ 40 µM; IC50 [5]: 11.1 ± 3.5 µM; IC50 [6]: 7.5 ± 1.6 µM; IC50 [8, 14]: 14 ± 2.3 µM; IC50 [9]: 5.8 ± 1.1 µM
		18 ± 0.5	19.7 ± 0.7	O=C(/C=C/c1ccc(O)c(O)c1)O[C@@H]1C[C@](O)(C(=O)O)C[C@@H](OC(=O)/C=C/c2ccc(O)c(O)c2)[C@H]1O [Compound 7, 3,5-O-Dicaffeoylquinic acid]	> 100	> 100	> 100	IC50 (5-lipoxygenase): 10 ± 0.2 µM; percent inhibition of 5-lipoxygenase (RBL-1) [12]: inactive; IC50 [8, 14]: 18.2 ± 0.5 µM
0	did not exhibit activities			CC(C)(O)[C@@H]1Cc2cc3ccc(=O)oc3cc2O1 [Compound 9, (−)-Marmesin]	50 ± 4.9	> 100	> 100	
0	did not exhibit activities			CC(C)=CCOc1c2ccoc2cc2oc(=O)ccc12 [Compound 10, Isoimperatorin]	> 100	> 100	> 100	
